Measured values from article PMC10647589, “Heterogeneous Cellular Response of Primary and Metastatic Human Gastric Adenocarcinoma Cell Lines to Magnoflorine and Its Additive Interaction with Docetaxel” (International Journal of Molecular Sciences, 2023).

Legend:
Test in all cases: MTT assay (viability; isobolographic analysis)
Format in all cases: cell-based
[1] = tested on: MKN-74 human GC cells; conditions: MKN-74, 72 h incubation, mean ± SEM
Method: (§1) The human GC cells ACC-201, AGS, MKN-74 and NCI-N87 were placed in 96-well plates and allowed to adhere overnight. On the following day, the growth medium was removed, and the cells were treated with a series of tested MGN and DCT dilutions (2.0–75 and 0.0004–0.0404 µg/mL, respectively) for 72 h at 37 °C. […] Subsequently, a solution of MTT (5 mg/mL) was added to each well, and the cells were further incubated for 3 h at 37 °C. Tetrazolium salt was reduced to violet formazan derivatives via the succinate dehydrogenase of metabolically active cells. Insoluble formazan compounds formed inside the cells were extracted with a sodium dodecyl sulfate buffer (10% SDS in 0.01 N HCl) overnight to achieve a quantitative assessment of the amount produced. The absorbance of the samples was measured at 570 nm using Infinite M200 Pro microplate reader (Tecan, Männedorf, Switzerland). Cell viability was presented as a percentage relative to the untreated control cells.
(§2) Interactions between MGN and DCT analyzed after 72 h in four different GC cell lines (ACC-201, AGS, MKN-74 and NCI-N87) were characterized by means of an isobolographic analysis in the MTT assay. The percentage inhibition of cell viability accompanied by the specific concentrations of the tested substances (MGN and DCT) were transferred to the MS Excel spreadsheet, and the data were computed using the log–probit method. Next, the concentration–response effect graphs for the tested drugs (MGN and DCT) were drawn, and the IC50 values for every tested drug were calculated. The cooperative effect of two concentration–response lines was tested for the MGN and DCT combination, as previously described. The calculations of IC50 values (±SEM) were computed with formulas originally derived from the log–probit method and adapted to the in vitro conditions, as described earlier. The concentration–response lines for MGN and DCT were not parallel, and thus, the isobolographic additivity was illustrated graphically as an area bounded by two (upper and lower) lines of additivity. From the experimentally denoted IC50 values for MGN and DCT in the MTT assay, median additive inhibitory concentrations (IC50add) for the mixture (at the fixed ratio of 1:1 of MGN and DCT) in various cell lines (ACC-201, AGS, MKN-74 and NCI-N87) were calculated, as described previously. More information on isobolographic analysis can be found in the literature.

[2] = tested on: NCI-N87 human GC cells; conditions: NCI-N87, 72 h incubation, mean ± SEM
Method: as §1, §2

[3] = tested on: AGS human GC cells; conditions: 72 h incubation, mean ± SEM
Method: as §1, §2

[4] = tested on: ACC-201 human GC cells; conditions: ACC-201, 72 h incubation, mean ± SEM
Method: as §1, §2

IC50 [1]: 4.9 ± 2.1 ng/mL | IC50 [3]: 2.6 ± 1.2 ng/mL
SMILES: CC(=O)O[C@@]12CO[C@@H]1C[C@H](O)[C@@]1(C)C(=O)[C@H](O)C3=C(C)[C@@H](OC(=O)[C@H](O)[C@@H](NC(=O)OC(C)(C)C)c4ccccc4)C[C@@](O)([C@@H](OC(=O)c4ccccc4)[C@H]21)C3(C)C [DCT, docetaxel]
IC50 [2]: 9 ± 2.9 ng/mL | IC50 [4]: 2.8 ± 0.9 ng/mL
